The test system of experiment [1] is human precision cut liver slices (PCLS). In words: Biomarker secretion from PCLS into culture medium (ELISA). In kind it is cell-based. To be noted: collagen1α1, fibronectin, hyaluronic acid, IL-6, MCP-1. The method, then:
(§1) PCLS were obtained from 5 human donors who underwent resection of liver cancer. Replicate slices were collected from healthy margins of the resections and cultured for 4 or 6 days depending on the experimental protocol. In the Nonstimulation Protocol slices were cultured for 6 days and treated for the entire period with DMSO vehicle or 5 μM CRV431. In the Stimulation Protocol slices were rested for 1 day and then administered the cytokines, TGFβ and PDGF-BB, for 3 days to stimulate inflammation and fibrosis. DMSO vehicle, CRV431 (1 and 5 μM), Alk5i (10 μM), obeticholic acid (5 μM), elafibranor (5 μM), resmetirom (5 μM), and Aramchol (5 μM) were administered individually as drug treatments in the Stimulation Protocol concurrent with TGFβ+PDGF-BB. Culture medium treatments were replaced daily.
(a) Biomarker secretion. Spent culture medium was collected daily from duplicate slices for each treatment. ELISAs were used to quantify secretion of monocyte chemoattractant protein (MCP-1), interleukin-6 (IL-6), tissue inhibitor of metalloproteinase-1 (TIMP1), hyaluronic acid, fibronectin, and collagen 1α1. For each donor the mean level of biomarker secretion in each treatment group was expressed as a percentage change relative to DMSO vehicle, the percentages averaged for all donors, and finally the mean daily percentage change calculated from all days of evaluation. […]

For experiment [2] the test system is unchanged. In words: Gene expression in PCLS by RT-PCR. In kind it is cell-based. Conditions: collagen1α1, αSMA, TIMP1, IL-6, MCP-1. The method, then: as §1
(c) Gene expression by RT-PCR. RNA was isolated from duplicate liver slices per treatment at the end of the experiments and evaluated by RT-PCR for 5 markers of inflammation and fibrosis: MCP-1, IL-6, TIMP1, αSMA, and collagen 1α1. β actin was used as a reference gene to calculate relative levels of each target gene RNA. […] Results are shown in FIG. 1C (gene expression by RT-PCR).

Experiment [3] shares this test system. Nature of the experiment: Sirius red histological staining of PCLS (tissue fibrosis). In kind it is cell-based. The method, then: as §1
(b) Sirius red histological staining. […] Sirius red was quantified morphometrically in the histological sections as the percentage area with Sirius red staining in 10 sections from each treatment. In the Nonstimulation Protocol the quantity of Sirius red staining was expressed relative to the vehicle group. In the Stimulation Protocol the quantity of Sirius red staining was expressed relative to nonstimulated PCLS (0%) and TGFβ+PDGF-BB-stimulated+vehicle PCLS (100%). Results are shown in FIG. 1B (Sirius red staining for tissue fibrosis).

The test system of experiment [4] is liver tumors (likely hepatocellular carcinoma). Nature of the experiment: Liver tumor burden in streptozotocin/high-fat diet NASH mice. The class given is in vivo, C57BL/6J male mice. On the procedure: NASH was initiated in 2-day-old C57BL/6J male mice by intraperitoneal injection with […] streptozotocin (S0130; Sigma-Aldrich) to disrupt pancreatic β cells, induce diabetes, and promote adiposity in the liver. Mice were weaned at 3 weeks of age and begun on a high-fat diet with 60% kcal fat (D12492N; Research Diets) for the duration of the studies. Additionally, mice with a regular diet (D12450KN; Research Diets) and without streptozotocin were included as negative controls. CRV431 was dissolved in a self-microemulsifying drug vehicle and then diluted with PBS and administered daily by oral gavage at 50 mg/kg per day. The start time and duration of vehicle and CRV431 treatments varied depending on the study.
In two separate experiments, tumor burden at the end of treatment was assessed by the number of tumors (FIGS. 11A and 12A) and a composite score based on the number and size of tumors (0-7 scale; FIGS. 11B and 12B).

In experiment [5] the test system is HepG2 hepatocellular carcinoma cells. To be noted: 4 days, strongest with 0.37 μM daunorubicin and CRV431 0.25-4 μM. On the procedure:
(§2) HepG2 hepatocellular carcinoma cell lines and Huh7 hepatocellular carcinoma cell lines were plated in 96 well plates at subconfluent densities. The chemotherapy compound, daunorubicin, and CRV431 were applied alone or in combination at the indicated concentrations in duplicate wells for each treatment. After 4 days incubation, cell viability was assessed with Cell Titer Glo 2.0.

Experiment [6] deals with Huh7 hepatocellular carcinoma cells. Conditions: 4 days, strongest with 0.37 μM daunorubicin and CRV431 1-4 μM. The method, then:
as §2

The mark [7] stands for this setting: 50 mg/kg per day oral gavage, weeks 20 to 30.

Entries after “also recorded” stand apart in the source; their conditions may differ.

This is an account of results in patent US20210269479A1, “USE OF CY[…] FOR TREATING CANCER” (Hepion Pharmaceuticals, Inc., priority 2020, published 2021).

On to `CC[C@@H]1NC(=O)[C@H]([C@H](O)[C@H](C)CCCCCCNC(C)=O)N(C)C(=O)[C@H](C(C)C)N(C)C(=O)[C@H](CC(C)C)N(C)C(=O)[C@H](CC(C)C)N(C)C(=O)[C@@H](C)NC(=O)[C@H](C)NC(=O)[C@H](CC(C)C)N(C)C(=O)[C@H](C(C)C)NC(=O)[C@H](CC(C)C)N(C)C(=O)[C@@H](C)N(C)C1=O` [CRV431], for which the “secretion of inflammation and fibrosis biomarkers” value in experiment [1] was “reduced secretion of collagen1α1, fibronectin, hyaluronic acid, IL-6, and MCP-1; also recorded: decreased the mean daily secretion and gene expression of all markers”. The “RNA levels of inflammation and fibrosis markers by qRT-PCR” value in experiment [2] was “reductions in RNA levels of collagen1α1, αSMA, TIMP1, IL-6, and MCP-1; also recorded: decreased the mean daily secretion and gene expression of all markers”. Besides, in experiment [3] (6 days of culture, absence of exogenous TGFβ+PDGF-BB), the “tissue fibrosis vs vehicle-treated slices” value is given as “less fibrosis than vehicle-treated slices”. In addition, the “prevention of TGFβ+PDGF-BB-induced tissue fibrosis” value in experiment [3] (Stimulation Protocol, compared with other NASH drug candidates) is “most effective of five NASH drug candidates”. Further, in experiment [4] (setting [7]), the “decrease of tumor burden (score combining tumor number and size)” value was determined as 52%; the livers lacking tumors is on record as 2 of 10; the “number of liver tumors vs vehicle” value was “half the number of tumors”; the “tumor size vs vehicle” value is “smaller tumors on average”. Also, in experiment [4] (50 mg/kg/day, end of treatment), the “Tumor number, mean” value came to 4.80 and the “Tumor score, mean (0-7 scale)” value stood at 2.40. The “effect on cytotoxicity of daunorubicin” value in experiment [5] is recorded as “increased the cytotoxicity of daunorubicin”. Further, in experiment [6], the “effect on cytotoxicity of daunorubicin” value is listed as “increased the cytotoxicity of daunorubicin”.
